The experiment has as its system cells. The experiment in a line: cellular adherence to alginate, cell type not stated. Conditions: lidocaine present with poloxamer. The format is cell-based.

Consider `CCN(CC)CC(=O)Nc1c(C)cccc1C` [lidocaine], for which the “cellular adherence properties of alginate” value is “reduce the cellular adherence properties of alginate, for example, still further”.

Source of the values: patent publication US20050064021A1, “Medical dressings” (priority 2001, published 2005).
